{"source": "patent US20070111952A1", "about": "“Glycosylated triketide delta lactones” (priority 2003, published 2007)", "key": {"[1]": {"test_system": "A. azollae vegetative cells", "experiment": "Azolla shoot apex bioassay: akinete differentiation of A. azollae / chlorosis of Azolla", "assay_type": "cell-based, Anabaena azollae", "method": "Approximately 10 000 dried N. cornicina (36 g) were ground, suspended in 750 ml H2O, treated 60′ in a 100° C. water bath and centrifuged (14 000×g, 60′). The residue was re-suspended in 300 ml H2O, shacked 15′ and centrifuged (14 000×g, 60′). The two supernatants were grouped, filtered on Macherey-Nagel MN 615 paper and lyophilized. The dry residue (7 g) was suspended in 8 ml H2O, vortexed and centrifuged (7 800×g, 30′). Six ml of supernatant were filtered on acrodiscs 0.22 μm in four 1.5 ml batches, each filtrate being chromatographed on a 500 ml, 2.5 cm diameter Sephadex G 10 column (eluent: water; 3′/fraction, around 6 ml/fraction) The residue was suspended in 2 ml H2O, vortexed and centrifuged (7 800×g, 30′). Two ml of supernatant were filtered and chromatographed as above. This last procedure was repeated twice. Absorbance of each fraction was measured at 254 nm and bioassays were performed on 50 μl of each fraction from the seven chromatograms.\nAzolla is a small aquatic fern, which multiplies, most often vegetatively, at the surface of still water bodies, where it can form dense floating carpets. Anabaena azollae is the only known diazotrophic symbiont associated to a pteridophyte, Azolla and the only one linked to a plant throughout its life cycle. […]"}, "[2]": {"test_system": "A. azollae vegetative cells", "experiment": "Stability of the akinete-inducing activity (autoclaving, long storage)", "set-up": "species or system Anabaena azollae", "method": "Extract of Nephrotoma cornicina (Linnaeus, 1758) (Tipulidae, Diptera) contains a glycosylated triketide lactone, here named cornicinine. The compound according to the invention is present in the head, thorax, abdomen, legs and wings of the insect, from both sexes.\nAn Azolla shoot apex +/−3 mm long was excised and placed in a 2 ml Eppendorf tube filled with modified, N-free Hoagland solution to which was added the material to be tested. The culture was performed at 26° C. under constant light intensity of 110 μM. m^−2.sec^−1 and with daily adjustment of the liquid level with distilled water to compensate evapotranspiration. Activity was indicated by progressive chlorosis of Azolla, which appears after 5 days. Akinete differentiation can alternatively be followed by observation of leaf squashes under a light microscope, with first symptoms appearing after 48 hours of treatment."}}}
{"substance": "cornicinine", "values": [{"measurement": "concentration able to induce the differentiation of all the vegetative cells of A. azollae into akinetes", "setting": "[1]; all vegetative cells into akinetes", "result": "nanomolar concentrations"}, {"measurement": "activity on Azolla species", "setting": "[1]; the seven generally recognised Azolla species", "result": "active"}, {"measurement": "stability", "setting": "[2]", "result": "stable"}]}
